Consider 15 compounds from patent US10689340B2, “Substituted indoline derivatives as dengue viral replication inhibitors” (priority 2016, dated 2020).

The test system of one series is DENV-2 strain 16681. Briefly: Tetravalent RT-qPCR assay, serotype 2. Particulars: Dengue virus, DENV2, 72 h; RT-qPCR serotype 2 16681, Protocol A, Vero cells, day 3. Format: cell-based. The method, then: (§1) The antiviral activity of the compounds of the invention was tested against DENV-1 strain TC974#666 (NCPV), DENV-2 strain 16681, DENV-3 strain H87 (NCPV) and DENV-4 strain H241 (NCPV) in a RT-qPCR assay. Therefore, Vero cells were infected with either DENV-1, or -2, or -3, or -4 in the presence or absence of test compounds. At day 3 post-infection, the cells were lysed and cell lysates were used to prepare cDNA of both a viral target (the 3′UTR of DENV; Table 2) and a cellular reference gene (β-actin, Table 2). Subsequently, a duplex real time PCR was performed on a Lightcycler480 instrument. The generated Cp value is inversely proportional to the amount of RNA expression of these targets. Inhibition of DENV replication by a test compound results in a shift of Cp's for the 3′UTR gene. On the other hand, if a test compound is toxic to the cells, a similar effect on β-actin expression will be observed. The comparative ΔΔCp method is used to calculate EC50, which is based on the relative gene expression of the target gene (3′UTR) normalized with the cellular housekeeping gene (β-actin). In addition, CC50 values are determined based on the Cp values acquired for the housekeeping gene β-actin.
(§2) The culture medium consisted of minimal essential medium supplemented with 2% of heat-inactivated fetal calf serum, 0.04% gentamycin (50 mg/mL) and 2 mM of L-glutamine. Vero cells, obtained from ECACC, were suspended in culture medium and 75 μL/well was added in 96-well plates (10000 cells/well), which already contain the antiviral compounds. […] In addition, each plate contains wells which are assigned as virus controls (containing cells and virus in the absence of compound) and cell controls (containing cells in the absence of virus and compound). Once the cells were added in the plates, the plates were incubated in a fully humidified incubator (37° C., 5% CO2) until the next day. Dengue viruses serotype-1, -2, -3 and -4 were diluted in order to obtain a Cp of ˜22-24 in the assay. Therefore, 25 μL of virus suspension was added to all the wells containing test compound and to the wells assigned as virus control. In parallel, 25 μL of culture medium was added to the cell controls. Next, the plates were incubated for 3 days in a fully humidified incubator (37° C., 5% CO2). After 3 days, the supernatant was removed from the wells and the cells were washed twice with ice-cold PBS (˜100 μL). The cell pellets within the 96-well plates were stored at −80° C. for at least 1 day. Next, RNA was extracted using the Cells-to-CT^Tm lysis kit, according to the manufacturer's guideline (Life Technologies). The cell lysates can be stored at −80° C. or immediately used in the reverse transcription step.
(§3) In preparation of the reverse transcription step, mix A (table 3A) was prepared and 7.57 μL/well was dispensed in a 96-well plate. After addition of 5 μL of the cell lysates, a five minute denaturation step at 75° C. was performed (table 3B). Afterwards, 7.43 μL of mix B was added (table 3C) and the reverse transcription step was initiated (table 3D) to generate cDNA.
(§4) Finally, a RT-qPCR mix was prepared, mix C (table 4A), and 22.02 μL/well was dispensed in 96-well LightCycler qPCR plates to which 3 μL of cDNA was added and the qPCR was performed according to the conditions in table 4B on a LightCycler 480.
(§5) Using the LightCycler software and an in-house LIMS system, dose response curves for each compound were calculated and the half maximal effective concentration (EC50) and the half maximal cytotoxic concentration (CC50) were determined (Tables 5-8).
(Quantitative PCR measures a nucleic acid by following its amplification.)

In another series the test system is DENV-1 strain TC974#666. Briefly: Tetravalent RT-qPCR assay, serotype 1. Conditions: Dengue virus, DENV1, Vero, 72 h. The format is cell-based. The method, then:
as §1, §2, §3, §4, §5

In the next series the test system is DENV-2 16681 strain. Nature of the series: DENV-2 antiviral assay (eGFP fluorescence). Format: cell-based, Dengue virus. Conditions: DENV-2 16681 eGFP, Vero cells, MOI 0.5, 3 days. The method, then:
The antiviral activity of all the compounds of the invention was tested against the DENV-2 16681 strain which was labeled with enhanced green fluorescent protein (eGPF). The culture medium consists of minimal essential medium supplemented with 2% of heat-inactivated fetal calf serum, 0.04% gentamycin (50 mg/mL) and 2 mM of L-glutamine. Vero cells, obtained from ECACC, were suspended in culture medium and 25 μL was added to 384-well plates (2500 cells/well), which already contain the antiviral compounds. Typically, these plates contain a 5-fold serial dilution of 9 dilution steps of the test compound at 200 times the final concentration in 100% DMSO (200 nL). […] Finally, each plate contains wells which are assigned as virus controls (containing cells and virus in the absence of compound), cell controls (containing cells in the absence of virus and compound) and medium controls (containing medium in the absence of cells, virus and compounds). To the wells assigned as medium control, 25 μL of culture medium was added instead of Vero cells. Once the cells were added to the plates, the plates were incubated for 30 minutes at room temperature to allow the cells to distribute evenly within the wells. Next, the plates were incubated in a fully humidified incubator (37° C., 5% CO2) until the next day. Then, DENV-2 strain 16681, labeled with eGFP, was added at a multiplicity of infection (MOI) of 0.5. Therefore, 15 μL of virus suspension was added to all the wells containing test compound and to the wells assigned as virus control. In parallel, 15 μL of culture medium was added to the medium and cell controls. Next, the plates were incubated for 3 days in a fully humidified incubator (37° C., 5% CO2). At the day of the read out, the eGFP fluorescence was measured using an automated fluorescence microscope at 488 nm (blue laser). Using an in-house LIMS system, inhibition dose response curves for each compound were calculated and the half maximal effective concentration (EC50) was determined. Therefore, the percent inhibition (I) for every test concentration is calculated using the following formula: I=100*(ST-SCC)/(SVC-SCC); ST, SCC and SVC are the amount of eGFP signal in the test compound, cell control and virus control wells, respectively. The EC50, represents the concentration of a compound at which the virus replication is inhibited with 50%, as measured by a 50% reduction of the eGFP fluorescent intensity compared to the virus control. The EC50 is calculated using linear interpolation (Table 1).

The next series relates to Vero cells. Conditions: African green monkey.
A further series deals with DENV-4 strain H241. Nature of the series: Tetravalent RT-qPCR assay, serotype 4. Format: cell-based. Conditions: Dengue virus, DENV4, 72 h; RT-qPCR serotype 4 H241, Protocol A, Vero cells, day 3. The method, then:
as §1, §2, §3, §4, §5

A further series relates to DENV-3 strain H87. Briefly: Tetravalent RT-qPCR assay, serotype 3. Conditions: Dengue virus, DENV3, 72 h; RT-qPCR serotype 3 H87, Protocol A, Vero cells, day 3. Format: cell-based. How it is done: as §1, §2, §3, §4, §5
A short description of another series: in vitro. Conditions: African green monkey.
The mark [1] stands for this setting: Dengue virus, DENV2, Vero, 72 h.

By EC50 is commonly meant the concentration that produces a half-maximal response. On to `COc1cc(NC(C(=O)N2CCc3ccc(OC(F)(F)F)cc32)c2ccc(Cl)cc2)cc(OCCCC(=O)O)c1` (single isomer, unassigned) [Compound 4B], for which the EC50 turned out to be 0.06 nM with DENV-2 strain 16681; 0.048 nM with DENV-1 strain TC974#666; 0.12 nM in the series on DENV-2 16681 strain; 11 nM in the series on DENV-4 strain H241; 0.66 nM in the series with DENV-3 strain H87. Moreover, the CC50 with Vero cells was determined as 13000 nM.

With `COc1cc(NC(C(=O)N2CCc3ccc(C(F)(F)F)cc32)c2ccc(Cl)cc2F)cc(OCCCC(=O)O)c1` (single isomer, unassigned) [Compound 9B], the EC50 in the series on DENV-2 strain 16681 was 0.3 nM; with DENV-1 strain TC974#666 it was 0.22 nM; in the series with DENV-2 16681 strain, 0.4 nM; in the series on DENV-4 strain H241, 31 nM; in the series with DENV-3 strain H87, 4.1 nM. The compound also yielded a CC50 with Vero cells of 13000 nM.

For `COc1cc(NC(C(=O)N2CCc3ccc(C(F)(F)F)cc32)c2ccc(Cl)cc2)cc(OCCCC(=O)O)c1` (single isomer, unassigned) [Compound 3B], the 50% effective concentration (EC50) came out at 0.12 nM in the series with DENV-2 strain 16681; 0.18 nM with DENV-1 strain TC974#666; 0.14 nM in the series with DENV-2 16681 strain; 14 nM with DENV-4 strain H241; 1.1 nM in the series with DENV-3 strain H87. This compound also yielded a CC50 with Vero cells of 13000 nM.

`COc1cc(NC(C(=O)N2CCc3ccc(C(F)(F)F)cc32)c2ccc(F)cc2)cc(OCCCC(=O)O)c1` (single isomer, unassigned) [Compound 1B]: the 50% effective concentration (EC50) with DENV-2 strain 16681 is 0.48 nM; in the series on DENV-1 strain TC974#666 it was 0.28 nM; in the series on DENV-2 16681 strain, 0.84 nM; with DENV-4 strain H241, 51 nM; in the series with DENV-3 strain H87 it was 3.4 nM. Further, the CC50 in the series with Vero cells came to 20000 nM.

`COc1cc(NC(C(=O)N2CCc3ccc(OC(F)(F)F)cc32)c2ccc(Cl)cc2F)cc(OCCCC(=O)O)c1` (single isomer, unassigned) [Compound 10A]: the concentration for a half-maximal effect (EC50) in the series with DENV-2 strain 16681 came out at 0.2 nM; in the series on DENV-1 strain TC974#666, 0.16 nM; in the series with DENV-2 16681 strain it was 0.19 nM; with DENV-4 strain H241, 10 nM; in the series with DENV-3 strain H87, 2.1 nM. This compound gave a CC50 in the series “in vitro” of 13000 nM.

In the series on DENV-2 16681 strain (setting [1]), `COc1cc(NC(C(=O)N2CCc3cc(OC)c(C(F)(F)F)cc32)c2ccc(Cl)cc2F)cc(OCCCC(=O)O)c1` (racemic) [Compound 11, 4-(3-((1-(4-chloro-2-fluorophenyl)-2-(5-methoxy-6-(trifluoromethyl)indolin-1-yl)-2-oxoethyl)amino)-5-methoxyphenoxy)butanoic acid] had a half-maximal effective concentration (EC50) of 0.66 nM. The compound further showed a CC50 in the series “in vitro” of 11000 nM.

The compound `COc1cc(NC(C(=O)N2CCc3cc(OC)c(OC(F)(F)F)cc32)c2ccc(Cl)cc2)cc(OCCCC(=O)O)c1` (single isomer, unassigned) [Compound 12A] gave an EC50 with DENV-2 16681 strain of 380 nM. The CC50 in “in vitro” turned out to be 12000 nM.

For the compound `COc1cc(NC(C(=O)N2CCc3ccc(OC(F)(F)F)cc32)c2ccc(F)cc2)cc(OCCCC(=O)O)c1` (racemic) [Compound 2, 4-(3-((1-(4-fluorophenyl)-2-oxo-2-(6-(trifluoromethoxy)indolin-1-yl)ethyl)amino)-5-methoxyphenoxy)butanoic acid], in the series on DENV-2 16681 strain (setting [1]), the EC50 stood at 0.55 nM. In addition, the CC50 in “in vitro” worked out at 12000 nM.

Compound `COc1cc(NC(C(=O)N2CCc3ccc(C(F)(F)F)cc32)c2ccc(Cl)cc2F)cc(OCCCC(=O)O)c1` (single isomer, unassigned) [Compound 9A] yielded a concentration for a half-maximal effect (EC50) in the series with DENV-2 16681 strain of 31 nM. For the same compound, in the series “in vitro”, the CC50 stood at 12000 nM.

Take `COc1cc(NC(C(=O)N2CCc3cc(OC)c(C(F)(F)F)cc32)c2ccc(Cl)cc2)cc(OCCCC(=O)O)c1` (racemic) [Compound 5, 4-(3-((1-(4-chlorophenyl)-2-(5-methoxy-6-(trifluoromethyl)indolin-1-yl)-2-oxoethyl)amino)-5-methoxyphenoxy)butanoic Acid]: in the series on DENV-2 16681 strain (setting [1]), the 50% effective concentration (EC50) was 0.62 nM. Besides, the CC50 in the series “in vitro” was determined as 13000 nM.

The compound `COc1cc(NC(C(=O)N2CCc3cc(OC)c(C(F)(F)F)cc32)c2ccc(Cl)cc2F)cc(OCCCC(=O)O)c1` (single isomer, unassigned) [Compound 11A] showed an EC50 in the series on DENV-2 16681 strain of 15 nM. In the series “in vitro”, the CC50 came out at 12000 nM.

`COc1cc(NC(C(=O)N2CCc3ccc(OC(F)(F)F)cc32)c2ccc(Cl)cc2F)cc(OCCCC(=O)O)c1` (single isomer, unassigned) [Compound 10B]: the half-maximal effective concentration (EC50) with DENV-2 16681 strain was determined as 5.5 nM. Also, the CC50 in the series on Vero cells was 8800 nM.

In the series with DENV-2 16681 strain (setting [1]), `COc1cc(NC(C(=O)N2CCc3ccc(OC(F)(F)F)cc32)c2ccc(Cl)cc2OC)cc(OCCCC(=O)O)c1` (racemic) [Compound 8, 4-(3-((1-(4-chloro-2-methoxyphenyl)-2-oxo-2-(6-(trifluoro-methoxy)indolin-1-yl)ethyl)amino)-5-methoxyphenoxy)butanoic acid] yielded an EC50 of 0.13 nM. This compound also registered a CC50 in the series “in vitro” of 12000 nM.

As to `COc1cc(NC(C(=O)N2CCc3ccc(OC(F)(F)F)cc32)c2ccc(Cl)cc2F)cc(OCCCC(=O)O)c1` (racemic) [Compound 10, 4-(3-((1-(4-chloro-2-fluorophenyl)-2-oxo-2-(6-(trifluoromethoxy)indolin-1-yl)ethyl)amino)-5-methoxy-phenoxy)butanoic acid], the midpoint of the response with DENV-2 16681 strain (setting [1]), the EC50, lay at 0.24 nM. The compound further yielded a CC50 in the series “in vitro” of 10000 nM.

Turning to `COc1cc(NC(C(=O)N2CCc3ccc(C(F)(F)F)cc32)c2ccc(Cl)cc2)cc(OCCCC(=O)O)c1` (single isomer, unassigned) [Compound 3A], in the series with DENV-2 16681 strain, it took 3.9 nM to reach a half-maximal effect (EC50). Besides, the CC50 in the series “in vitro” came to 11000 nM.
